Laboratory results reported in ChEMBL document CHEMBL1201862, “PubChem BioAssay data set” (2004).
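Where inhibition never reached the appropriate level, the endpoint shown equals the highest concentration tested. Otherwise, values were interpolated linearly from a five-concentration, 48-hour dose response in 96-well plates. Abbreviation: GI50, concentration required for 50% inhibition of growth.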 Activity calls are given as the source filed them. Cut-off read from the data, not from the text of the source: active = GI50 up to about 1.1 µM and inactive = higher.

Key:
Assay in all cases: NCI tumour cell line growth inhibition, 48 h
ACHN = system: ACHN
HOP-92 = system: HOP-92
NCI-H23 = system: NCI-H23
EKVX = system: EKVX
SR = system: SR
NCI-H226 = system: NCI-H226
OVCAR-8 = system: OVCAR-8
M14 = system: M14
TK-10 = system: TK-10
SNB-75 = system: SNB-75
MDA-N = system: MDA-N
CAKI-1 = system: CAKI-1
Hs-578T = system: Hs-578T
SK-MEL-2 = system: SK-MEL-2
A498 = system: A498
OVCAR-5 = system: OVCAR-5
K562 = system: K562
OVCAR-3 = system: OVCAR-3
CCRF-CEM = system: CCRF-CEM
SNB-19 = system: SNB-19

SMILES	GI50 (ACHN)	GI50 (HOP-92)	GI50 (NCI-H23)	GI50 (EKVX)	GI50 (SR)	GI50 (NCI-H226)	GI50 (OVCAR-8)	GI50 (M14)	GI50 (TK-10)	GI50 (SNB-75)	GI50 (MDA-N)	GI50 (CAKI-1)	GI50 (Hs-578T)	GI50 (SK-MEL-2)	GI50 (A498)	GI50 (OVCAR-5)	GI50 (K562)	GI50 (OVCAR-3)	GI50 (CCRF-CEM)	GI50 (SNB-19)
O=C(c1cc2c(c3ccccc13)NC1(CCCCC1)N=C2C(F)(F)F)C(F)(F)F	3.63 µM (inactive)	3.69 µM (inactive)	3.83 µM (inactive)	4.82 µM (inactive)	3.6 µM (inactive)	4.41 µM (inactive)	4.23 µM (inactive)	6.17 µM (inactive)	4.01 µM (inactive)	4.7 µM (inactive)	3.72 µM (inactive)	3.35 µM (inactive)	6.32 µM (inactive)	2.44 µM (inactive)	7.83 µM (inactive)	8.83 µM (inactive)	4.3 µM (inactive)	2.85 µM (inactive)	3.39 µM (inactive)	5.4 µM (inactive)
FC(F)(F)c1ccc2nc3n(c2c1)C(c1c(Cl)cccc1Cl)SC3 (stereo not given)	15.9 µM (inactive)	4.65 µM (inactive)	15.1 µM (inactive)	13.8 µM (inactive)	4.24 µM (inactive)	17.3 µM (inactive)	19.6 µM (inactive)	16 µM (inactive)	18.3 µM (inactive)	13 µM (inactive)	11.7 µM (inactive)	14.8 µM (inactive)	23.1 µM (inactive)	18.2 µM (inactive)	19.8 µM (inactive)	15.9 µM (inactive)		15.6 µM (inactive)		18.6 µM (inactive)
C/C(=N/NC(=S)N(C)CCc1ccccn1)c1cnccn1	< 0.01 µM (active)	3.35 µM (inactive)	< 0.01 µM (active)	< 0.01 µM (active)	0.018 µM (active)	< 0.01 µM (active)	< 0.01 µM (active)	< 0.01 µM (active)	< 0.01 µM (active)	4.19 µM (inactive)	0.828 µM (active)	< 0.01 µM (active)	2.63 µM (inactive)	4.78 µM (inactive)	17.7 µM (inactive)	0.516 µM (active)	< 0.01 µM (active)	< 0.01 µM (active)	< 0.0358 µM (active)	0.437 µM (active)
COC(=O)C(CCC1C=CCC1)/N=C\c1ccccc1 (stereo not given)	73.5 µM (inactive)	67 µM (inactive)	52.6 µM (inactive)	44.8 µM (inactive)	38.3 µM (inactive)	56.8 µM (inactive)	68.2 µM (inactive)	46.2 µM (inactive)	99.1 µM (inactive)	93.3 µM (inactive)	49.9 µM (inactive)	50.2 µM (inactive)	> 100 µM (inactive)	37.5 µM (inactive)	81.5 µM (inactive)	> 100 µM (inactive)	47.2 µM (inactive)	66.5 µM (inactive)	56 µM (inactive)	79.1 µM (inactive)
Clc1ccccc1/C=C/c1nsc(/C=C/c2ccccc2Cl)n1	50.4 µM (inactive)	> 100 µM (inactive)		61 µM (inactive)	22.1 µM (inactive)	> 100 µM (inactive)	94 µM (inactive)	70.6 µM (inactive)	30.8 µM (inactive)	71.4 µM (inactive)	35 µM (inactive)	> 100 µM (inactive)	> 100 µM (inactive)	> 100 µM (inactive)	> 100 µM (inactive)	> 100 µM (inactive)	21.8 µM (inactive)	40.1 µM (inactive)	22.7 µM (inactive)	> 100 µM (inactive)
CCN(CC)CCCNc1nnc(C)c2[nH]c3ccccc3c12	18 µM (inactive)	6.9 µM (inactive)	15.5 µM (inactive)	18.7 µM (inactive)	7.13 µM (inactive)		7.93 µM (inactive)	16 µM (inactive)	20.2 µM (inactive)	18.3 µM (inactive)	13.7 µM (inactive)	> 100 µM (inactive)	15.4 µM (inactive)	15.2 µM (inactive)	17.2 µM (inactive)	19.6 µM (inactive)	10.1 µM (inactive)	11.7 µM (inactive)	4.42 µM (inactive)	19.3 µM (inactive)
O=c1[nH]c(Cc2ccccc2)nc2c1sc1nc3ccccc3n12	> 100 µM (inactive)	> 100 µM (inactive)	> 100 µM (inactive)	> 100 µM (inactive)	> 100 µM (inactive)	> 100 µM (inactive)	> 100 µM (inactive)	> 100 µM (inactive)	> 100 µM (inactive)	> 100 µM (inactive)	> 100 µM (inactive)	> 100 µM (inactive)	> 100 µM (inactive)	> 100 µM (inactive)	> 100 µM (inactive)	> 100 µM (inactive)		> 100 µM (inactive)	> 100 µM (inactive)	> 58.3 µM (inactive)
N/C(=N\Nc1ccc(C(=O)O)cc1)c1cnccn1	> 100 µM (inactive)	> 100 µM (inactive)	> 100 µM (inactive)	> 100 µM (inactive)	> 100 µM (inactive)	> 100 µM (inactive)	> 100 µM (inactive)	> 100 µM (inactive)	> 100 µM (inactive)	> 100 µM (inactive)	> 100 µM (inactive)	> 100 µM (inactive)	> 100 µM (inactive)	> 100 µM (inactive)	> 100 µM (inactive)	> 100 µM (inactive)	> 100 µM (inactive)	> 100 µM (inactive)		> 100 µM (inactive)
CC(C)(CCC(C)(C)N1OC1c1ccccc1)N1OC1c1ccccc1 (stereo not given)	19.8 µM (inactive)	33.4 µM (inactive)	55.3 µM (inactive)		14.1 µM (inactive)	76.9 µM (inactive)	> 100 µM (inactive)		22.8 µM (inactive)	> 100 µM (inactive)	39.9 µM (inactive)	23.4 µM (inactive)	36.2 µM (inactive)	21.5 µM (inactive)	32 µM (inactive)		13.4 µM (inactive)		9.31 µM (inactive)	47.5 µM (inactive)
CCOC(=O)C1C(c2ccc(OC)cc2)c2c(nn(-c3ccccc3)c2O)CC1(O)OCC (stereo not given)	25.4 µM (inactive)	> 100 µM (inactive)	> 100 µM (inactive)	98.9 µM (inactive)	2.17 µM (inactive)		> 100 µM (inactive)	19.7 µM (inactive)	> 100 µM (inactive)	82.4 µM (inactive)	8.63 µM (inactive)	> 100 µM (inactive)	> 100 µM (inactive)	> 100 µM (inactive)	> 100 µM (inactive)	> 100 µM (inactive)		> 100 µM (inactive)		10 µM (inactive)
CC1OC(O[C@H]2CC[C@]3(C)[C@H]4CC=C5[C@@H]6[C@@H](C)[C@H](C)CC[C@]6(C(=O)O)CC[C@@]5(C(=O)O)[C@]4(C)CC[C@H]3C2(C)C)C(O)C(O)C1O (stereo not given in full)	> 75 µM (inactive)	38.3 µM (inactive)	> 75 µM (inactive)		> 75 µM (inactive)		> 75 µM (inactive)	> 75 µM (inactive)	> 75 µM (inactive)	> 75 µM (inactive)	> 75 µM (inactive)	> 75 µM (inactive)	> 75 µM (inactive)	> 75 µM (inactive)	> 75 µM (inactive)	> 75 µM (inactive)	> 75 µM (inactive)	> 75 µM (inactive)	28.8 µM (inactive)	> 75 µM (inactive)
CCCCc1c(N(C)C)c(OC(C)=O)c(-c2cn(C)c3ccccc23)oc1=O	17.9 µM (inactive)	< 0.01 µM (active)	22.5 µM (inactive)	26.1 µM (inactive)	> 100 µM (inactive)	8.71 µM (inactive)		16.8 µM (inactive)	40 µM (inactive)	25.1 µM (inactive)	18.1 µM (inactive)	30.7 µM (inactive)	43 µM (inactive)	18.7 µM (inactive)	28.8 µM (inactive)	31.6 µM (inactive)		25.9 µM (inactive)	33.4 µM (inactive)	28.7 µM (inactive)
C=CC[C@]12C[C@@H](C(=O)OC)N(C(=O)OC)[C@H]1N(S(=O)(=O)c1ccccc1)c1ccccc12	95.1 µM (inactive)	42.6 µM (inactive)	34.1 µM (inactive)	31.2 µM (inactive)	38.4 µM (inactive)	> 100 µM (inactive)	> 100 µM (inactive)		> 100 µM (inactive)	21.5 µM (inactive)	41.8 µM (inactive)	> 100 µM (inactive)	42.9 µM (inactive)	42.3 µM (inactive)	81.1 µM (inactive)	31.4 µM (inactive)	41.1 µM (inactive)	87.9 µM (inactive)	82.6 µM (inactive)	> 100 µM (inactive)
OCC1OC(n2cnc3c2NC=NC[C@H]3O)CC1O (stereo not given in full)	400 µM (inactive)	398 µM (inactive)	486 µM (inactive)	489 µM (inactive)	359 µM (inactive)	484 µM (inactive)	489 µM (inactive)	418 µM (inactive)	> 500 µM (inactive)	337 µM (inactive)	> 500 µM (inactive)		> 500 µM (inactive)	497 µM (inactive)	422 µM (inactive)	> 500 µM (inactive)	469 µM (inactive)	497 µM (inactive)	392 µM (inactive)	479 µM (inactive)
COc1ccc(N)c(C(=O)CCNC(C)=O)c1 [KINURENAMINE]	> 100 µM (inactive)	> 100 µM (inactive)	> 100 µM (inactive)	> 100 µM (inactive)	> 100 µM (inactive)	> 100 µM (inactive)	> 100 µM (inactive)	> 100 µM (inactive)	> 100 µM (inactive)	> 100 µM (inactive)	> 100 µM (inactive)	> 100 µM (inactive)	> 100 µM (inactive)	> 100 µM (inactive)	> 100 µM (inactive)	> 100 µM (inactive)		> 100 µM (inactive)	> 100 µM (inactive)	> 100 µM (inactive)
